Tests used:
[1] = test system: Staphylococcus aureus CECT59; type: cell-based; details: S. aureus CECT59, two-fold broth microdilution (CLSI), MH broth, 24 h, 37 °C; triplicate (sd = 0); highest concentration tested 400 µM
Experimental: The CECT59 strain of the Gram-positive bacteria Staphylococcus aureus from the Spanish Type Culture Collection (Colección Española de Cultivos Tipo, CECT, Universitat de Valencia, Spain) was used for determining its sensitivity to the HPr peptides studied in this work. The MIC for each peptide was determined by the two-fold broth microdilution method according to the Clinical and Laboratory Standards Institute (CLSI) guidelines, with some modifications as previously described. For this testing procedure, a bacteria colony previously grown in MH agar plates was isolated and incubated in MH broth at 37 °C overnight to prepare the bacteria inoculum to be used in each assay. Then, the bacteria suspensions were adjusted to a 100× dilution of an 0.5 McFarland turbidity standard in MH broth and incubated with different concentrations of each peptide in round-bottom 96-well polystyrene plates (Deltalab S.L., Rubí, Spain) (50 μL/well) for 24 h at 37 °C. The peptide concentrations employed comprised two-fold dilutions starting at either 120, 160, or 400 µM, depending on the experiment. […] All assays were performed in triplicate.

[2] = Translational diffusion NMR (DOSY); type: physicochemical
Experimental: (b) Translational diffusion NMR (DOSY): Peptide concentrations were the same as those used in the 1D-^1H-NMR spectra. Translational self-diffusion measurements were performed with the pulsed-gradient spin-echo sequence in the presence of 100% D2O. The following relationship existed between the translational self-diffusion coefficient, D, and the delays used during experiment acquisition:(2) I/I0=−exp(DγH2δ^2G^2(Δ−δ/3−τ/2)) where I is the peak intensity of a particular resonance (or a group of them) at any gradient strength; I0 is the maximum peak intensity of the same resonance(s) at the smallest gradient strength (that is, at 2% of the total power of the gradient coil); D is the translational self-diffusion constant (in cm^2 s^−1); δ is the duration (in s) of the gradient; G is the gradient strength (in T cm^−1); ∆ is the time (in s) between the gradients; γH is the gyromagnetic constant of the proton (in rad s^−1 T^−1); and τ is the recovery delay between the bipolar gradients (100 µs in our experiments). The gradient strength (G) was varied in 16 lineal steps, between 2 and 95% of the total power of the gradient coil of the probe. The gradient strength was calibrated by using the value of D for the residual proton water line in a sample containing 100% D2O placed in a 5 mm tube [42]. Data were plotted as I/I0 versus G^2, and the exponential factor of the curve was:(3) DγH2δ^2(Δ−δ/3−τ/2) from which D can be obtained. The duration of the gradient (δ) was 2.25 ms, and the time between the two gradients (∆) was set to 200 ms. The signal from the methyl groups between 1.1 and 0.70 ppm were used for integration of the intensity. A final concentration of 1% of dioxane was added to each peptide; the hydrodynamic radius, Rh, of each peptide was obtained for comparison by assuming that the Rh of dioxane was 2.12 Å [42]. The DOSY experiment was repeated twice with fresh samples for each peptide.

Rsd^ec = target: T1, Rsd^ec (Escherichia coli, UniProt P0AFX4); test: Isothermal titration calorimetry (ITC), peptide/Rsd^ec binding; details: ITC, 25 °C, 50 mM Tris pH 7.0
T1 construct: His-tag; made in house; host or cells: E. coli C41
T1 sequence (P0AFX4 whole entry): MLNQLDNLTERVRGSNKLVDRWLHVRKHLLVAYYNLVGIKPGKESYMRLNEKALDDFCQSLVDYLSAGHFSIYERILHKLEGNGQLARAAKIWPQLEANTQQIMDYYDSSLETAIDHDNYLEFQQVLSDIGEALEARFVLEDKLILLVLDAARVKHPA
Experimental: The experimental set-up and data processing of ITC experiments has been described previously. Rsd^ec or EIN^sc (at 10–20 µM) were injected into the cell, and the peptides in the syringe (100–200 µM) in 50 mM of Tris buffer, pH 7.0. The temperature for all the experiments was 25 °C. Typically, each calorimetric titration consisted of performing 19 injections with 2 μL volume, with a time spacing of 150 s, while stirring at 750 rpm in an Auto-iTC200 high-sensitivity microcalorimeter (MicroCal, Malvern-Panalytical, Malvern, UK). The results were analysed by applying a model that considered a single binding site (assuming a 1:1 stoichiometry) for the peptide/EIN^sc or peptide/Rsd^ec interaction using a nonlinear least-squares regression analysis in Origin 7.0 (OriginLab, Northampton, MA, USA) with user-defined fitting routines.

[3] = TFE titration followed by far-UV CD (disordered-helical two-state equilibrium); type: physicochemical
Experimental: For experiments in the presence of TFE, the same set of experimental parameters was used. Cosolvent concentrations were indicated in percentage of volume (%). […] The peptide concentration for these experiments was 20 µM.

[4] = Far-UV CD, helicity from molar ellipticity at 222 nm; type: physicochemical; details: 5 °C
Experimental: Spectra were collected on a Jasco J810 spectropolarimeter (Jasco, Tokyo, Japan) interfaced with a Peltier unit. Far-UV measurements were performed with samples placed in quartz cells with a 0.1 cm path length (Hellma, Kruibeke, Belgium), with a response time of 2 s, a band width of 1 nm, and a scan velocity of 50 nm/min. For all peptides, a wide range of concentrations (10–50 µM) was used to determine whether either the shape or the intensity of the spectra was concentration-dependent. None of those features changed in the concentration range explored. The experiments in aqueous solution were acquired at 5 °C in Tris buffer (50 mM, pH 7.0). Raw ellipticity was converted to molar ellipticity, [Θ], from which the fraction of helical populations was determined as previously described. For the experiments in the presence of each protein (repeated three times), the same concentration used in the fluorescence experiments was used, and the experimental set-up was the same as described above for the isolated peptides.

[5] = TFE titration by far-UV CD, 20 µM peptide, two-state fit, fitting errors

Ac-GWAEGLHARPASIFVRAATATG-NH2 [Wild-type]
MIC [1]: 40 µM
D (translational diffusion coefficient) ([2]; DOSY, 10 °C, 100% D2O, 70-120 µM peptide, fitting errors, repeated twice): 1.95 ± 0.03 cm^2 s^−1 × 10^6
Rh (in parentheses, from DOSY) ([2]; from comparison with the Rh of dioxane (2.12 Å)): 11 ± 1 Å
ΔH, Rsd^ec (Rsd^ec): 1.3 ± 0.4 kcal/mol
[TFE]1/2 [3, 5]: 23.2 ± 0.5 % (v/v)
m [3, 5]: 166 ± 23 cal/mol (% (v/v))
percentage of helical population (in parentheses) ([3]; from ∆G^water assuming a two-state conformational equilibrium): 0.10%
∆G^water ([3]; product of m- and [TFE]1/2 values, error propagation): 3.8 ± 0.5 kcal/mol
[Θ]^222 (value in parentheses) ([4]; 50 mM Tris pH 7.0): −612.44 deg cm^2 dmol^−1
Helicity (%) ([4]; 50 mM Tris pH 7.0, from [Θ]^222 assuming −39,500 deg cm^2 dmol^−1 for a fully formed α-helix): 1.6%

From article PMC8509676, “Residual Helicity at the Active Site of the Histidine Phosphocarrier, HPr, Modulates Binding Affinity to Its Natural Partners” (International Journal of Molecular Sciences, 2021)
